Entries after “also recorded” stand apart in the source; their conditions may differ.
Legend:
[1] = tested on: cells expressing sialyl Lewis X antigen; experiment: MALDI-IMS imaging of a renal cell carcinoma tissue slice incubated with the imaging agent; type: binding; details: fresh-frozen renal tissue with tumor and normal regions, 7 μm slice, 2 ng/μl in methanol, overnight at 4° C., no matrix
Method: A tissue slice containing renal cell carcinoma was immunostained (mouse monoclonal antibody, GenWay Biotech San Diego, Calif.) that expressed regions coincident with the tumor area (dark stained bottom tip area of FIG. 3; confirmed by pathological analysis).
An adjacent tissue slice (7 μm) was placed on a conductive slide and incubated with the imaging agent of Example 3 in 100% methanol (2 ng/μl) in a humid chamber overnight at 4° C. Slides were washed for 5 minutes in PBS followed by brief water wash to remove any unbound material. The slides are placed in a desiccator for 20 minutes and analyzed directly by MALDI-TOF (no matrix is added) in the reflectron mode using a laser raster width of 200 μm.
The stabilized carbocation is used in this example located and confirm immunological and pathology analysis of this sample that the MALDI indicated region corresponded to the area associated with cancerous tissue.

[2] = tested on: renal cell carcinoma tissue; experiment: MALDI-IMS of alcohol fixed (UMFIX/Sakura) renal cell carcinoma tissue exposed to the imaging agent; type: binding
Excerpt: FIG. 4 depicts the MALDI-IMS of a renal cell carcinoma tissue sample exposed to the imaging agent of Example 3. FIG. 5 depicts the same tissue sample stained with Sakura/UMFx alcohol.
These red pixels correlate to the MALDI peaks in the spectra shown in FIG. 1 and the color intensity is related to peak abundance as shown in the expression scale. Peaks were obtained in the absence of any chemical matrix. […] As such, this provides a method for probing tumor tissue microarrays prepared from alcohol or formalin fixed tissues.

## COc1ccc(C(SCCC(=O)NCCCn2cc(COc3cc(C(=O)N(C)Cc4c5ccccc5c(CN(C)Cc5ccccc5B(O)O)c5ccccc45)ccc3C(=O)N(C)Cc3c4ccccc4c(CN(C)Cc4ccccc4B(O)O)c4ccccc34)nn2)(c2ccc(OC)cc2)c2ccc(OC)c(C#CCCC(=O)NCc3ccccc3)c2)cc1 [Example 3, [({[({[({2-[(1-{3-[({3-[5-(Benzylamino)-5-oxopent-1-yn-1-yl]-4-methoxyphenyl}bis(4-methoxyphenyl)methyl)thio]propanamido}prop-3-yl)-1H-1,2,3-triazol-4-yl]methoxy}terephthaloyl)bis(methylazanediyl)]bis(methylene)}bis(anthracene-10,9-diyl))bis(methylene)]bis(methylazanediyl)}bis(methylene))bis(2,1-phenylene)]-diboronic acid]
[1]
  binding of the imaging agent to tissue, detected as stabilized carbocation in MALDI-IMS: bound only to the cells expressing sialyl Lewis X antigen
[2]
  binding of the imaging agent to alcohol fixed tumor tissue: affixed to the cell surface; also recorded: capable of binding to alcohol fixed renal tissues

Source: patent publication US9476883B2, “Cellular recognition conjugates and methods of use for the histological analysis of cancer tissue using MALDI-MS imaging” (GEORGIA STATE UNIVERSITY RESEARCH FOUNDATION, priority 2011, dated 2016)
